Results taken from US11174250B2, “Substituted carboxamides as inhibitors of WDR5 protein-protein binding” (PROPELLON THERAPEUTICS INC., priority 2016, dated 2021).
pIC50, pKd: −log10 of the molar value. Where two headings read alike, the source gives them in different places.

Legend:
[1] = tested on: H3K4 dimethylation (H3K4me2) in T24 cells; assay: Detection of in-cell H3K4 dimethylation (AlphaLisa); format: cell-based; conditions: Homo sapiens, T-24, 120 h, five days
Experimental: T24 cells were seeded into a 96-well plate at 400 cells/well in 150 μl medium (McCoy 5A containing 10% FBS, 100 μg/ml Normocin, and 50 μg/ml Gentamycin, Invitrogen). A HP D300 digital dispenser was used to dose cells with DMSO or test compounds across a 10-point range of concentrations (high dose of 10 μM), and cultures were grown in a humidified 5% CO2 incubator at 37° C. After five days, plates were removed from incubator, media was aspirated, and the cells washed in PBS. Cell lysis, histone extraction, and detection of H3K4 dimethylation (H3K4me2) were performed using an AlphaLisa kit according to the manufacturer's instructions (Perkin Elmer). Signal was measured using an Envision plate reader.

MLL1-WRAD2 complex = MLL1-WRAD2 complex (Homo sapiens (Human), UniProt P61964); assay: MLL1-WRAD2 enzyme assay (in vitro methyl transferase assay); format: biochemical; conditions: MLL1-WRAD2 assay; read-out: In vitro MLL1 activity (IC50)
Experimental: Reaction was initiated with 1 μM 3H-SAM and incubated for 1 hour at 30° C. Reaction mixture was transferred to P81 filter-paper and washed with PBS before detection.

MV4-11 cells = assay: Cell proliferation assay (ATPlite); format: cell-based; conditions: Homo sapiens, MV4-11, 120 h; MV-411 cells, five days; read-out: In vitro whole cell potency in MV-411 cells, (IC50)
Experimental: MV4-11 cells were seeded into a 96-well plate at 1,000 cells/well in 150 μl medium (Alpha-MEM containing 10% FBS, 100 μg/ml Normocin, and 50 μg/ml Gentamycin, Invitrogen). A HP D300 digital dispenser was used to dose cells with DMSO or test compounds across a 10-point range of concentrations (high dose of 10 μM), and cultures were grown in a humidified 5% CO2 incubator at 37° C. After five days, plates were removed from incubator and equilibrated to room temperature. An equal volume of ATPlite assay reagent was added to each well, and samples were processed according to manufacturer's instructions (Perkin Elmer). Luminescent signal was measured using an Envision plate reader equipped with a US-Luminescence detector.

WDR5 protein = WDR5 protein (Homo sapiens (Human), UniProt P61964); assay: Surface Plasmon Resonance (SPR) assay; format: binding; conditions: SPR; for residence time: τ=1/koff, read-out: Residence Time (t, min)
Experimental: Exemplary compounds of the application were dissolved in 100% DMSO at 10 mM, assayed fresh, and then stored at −20° C. for repeat studies and other experiments. Full length WDR5 with an N-terminal His tag and C-terminal AviTag (Avidity Inc.) was expressed in E. coli with coexpression of BirA to biotin label the protein in vivo. Purification was via Ni-NTA. The purified WDR5 protein has a molecular weight of 41976 Da.
SPR studies were performed using a Biacore™ T200 instrument (GE Health Sciences Inc.). Biotinylated WDR5 protein (approximately 3000RU) was stably captured to streptavidin coupled SA chips according to the manufacture's protocol (GE Health Sciences Inc.). The running buffer used was HBS-EP (20 mM Hepes pH 7.4, 150 mM NaCl, 3 mM EDTA, 0.05% P-20) plus 5% DMSO with a flow rate of 40p1/min. For SPR analysis, 5 different concentrations of each exemplary compound of the application were sprayed into 96 or 384 well plates using an HP D300 digital dispenser. […] Curve fitting and KD calculations were performed with the Biacore T200 Evaluation software (GE Health Sciences Inc).

[2] = Table 1, read-out: WDR5 binding affinity (KD)
[3] = Table 2, read-out: WDR5 binding affinity SPR (KD)

## CN1CCN(c2ccc(-c3cc(CN4CCOCC4)ccc3F)cc2NC(=O)c2c[nH]c(=O)cc2C(F)(F)F)CC1 [Example 2, N-(2′-fluoro-4-(4-methylpiperazin-1-yl)-5′-(morpholinomethyl)-[1,1′-biphenyl]-3-yl)-6-oxo-4-(trifluoromethyl)-1,6-dihydropyridine-3-carboxamide]
[1]
  pIC50: 6.02
MLL1-WRAD2 complex
  pIC50: 6.03
MV4-11 cells
  pIC50: 6.20

## C[C@@H]1CN(c2ccc(-c3cc(CN4CCOCC4)ccc3F)cc2NC(=O)c2c[nH]c(=O)cc2C(F)(F)F)C[C@H](C)N1C [Example 27, N-(2′-fluoro-5′-(morpholinomethyl)-4-((3S,5R)-3,4,5-trimethylpiperazin-1-yl)-[1,1′-biphenyl]-3-yl)-6-oxo-4-(trifluoromethyl)-1,6-dihydropyridine-3-carboxamide]
MLL1-WRAD2 complex
  pIC50: 6.28
MV4-11 cells
  pIC50: 6.13
WDR5 protein; [2]
  pKd: 8.10
WDR5 protein; [3]
  pKd: 8.10
WDR5 protein
  residence time: 5.84 min

## C[C@@H]1CN(c2ccc(-c3nc(N4CCOCC4)ncc3F)cc2NC(=O)c2c[nH]c(=O)cc2C(F)(F)F)C[C@H](C)N1C [Example 125, N-(5-(5-fluoro-2-morpholinopyrimidin-4-yl)-2-((3S,5R)-3,4,5-trimethylpiperazin-1-yl)phenyl)-6-oxo-4-(trifluoromethyl)-1,6-dihydropyridine-3-carboxamide]
MLL1-WRAD2 complex
  pIC50: 7.31
MV4-11 cells
  pIC50: 7.06
WDR5 protein; [2]
  pKd: 8.52
WDR5 protein; [3]
  pKd: 8.51
WDR5 protein
  residence time: 11.6 min

## CN1CCN(c2ccc(-c3cc(CN4CCNCC4)ccc3F)cc2NC(=O)c2c[nH]c(=O)cc2C(F)(F)F)CC1 [Example 72, N-(2′-fluoro-4-(4-methylpiperazin-1-yl)-5′-(piperazin-1-ylmethyl)-[1,1′-biphenyl]-3-yl)-6-oxo-4-(trifluoromethyl)-1,6-dihydropyridine-3-carboxamide]
MLL1-WRAD2 complex
  pIC50: 5.23
MV4-11 cells
  pIC50: < 5.00
WDR5 protein; [2]
  pKd: 8.29
WDR5 protein; [3]
  pKd: 8.29
WDR5 protein
  residence time: 1.16 min

## CN1CCN(c2ccc(-c3ccc(CN4CCOCC4)cc3F)cc2NC(=O)c2c[nH]c(=O)cc2C(F)(F)F)CC1 [Example 38, N-(2′-fluoro-4-(4-methylpiperazin-1-yl)-4′-(morpholinomethyl)-[1,1′-biphenyl]-3-yl)-6-oxo-4-(trifluoromethyl)-1,6-dihydropyridine-3-carboxamide]
MLL1-WRAD2 complex
  pIC50: 5.40
MV4-11 cells
  pIC50: < 5.00
WDR5 protein; [2]
  pKd: 8.10
WDR5 protein; [3]
  pKd: 8.10
WDR5 protein
  residence time: 3.42 min

## C[C@@H]1CN(c2ccc(-c3cc(C(=O)N4CCOCC4)ccc3F)cc2NC(=O)c2c[nH]c(=O)cc2C(F)(F)F)C[C@H](C)N1C [Example 47, N-(2′-fluoro-5′-(morpholine-4-carbonyl)-4-((3S,5R)-3,4,5-trimethylpiperazin-1-yl)-[1,1′-biphenyl]-3-yl)-6-oxo-4-(trifluoromethyl)-1,6-dihydropyridine-3-carboxamide]
MLL1-WRAD2 complex
  pIC50: 5.62
MV4-11 cells
  pIC50: 5.70
WDR5 protein; [2]
  pKd: 8.10
WDR5 protein; [3]
  pKd: 8.10
WDR5 protein
  residence time: 9.58 min

## CN1CCN(c2ccc(-c3cc(CN(C)[C@H]4CCOC4)ccc3F)cc2NC(=O)c2c[nH]c(=O)cc2C(F)(F)F)CC1 [Example 76, (S)—N-(2′-fluoro-5′-((methyl(tetrahydrofuran-3-yl)amino)methyl)-4-(4-methylpiperazin-1-yl)-[1,1′-biphenyl]-3-yl)-6-oxo-4-(trifluoromethyl)-1,6-dihydropyridine-3-carboxamide]
MLL1-WRAD2 complex
  pIC50: 5.72
MV4-11 cells
  pIC50: 6.10
WDR5 protein; [2]
  pKd: 8.26
WDR5 protein; [3]
  pKd: 8.26
WDR5 protein
  residence time: 3.81 min

## CN1CCN(c2ccc(-c3cc(CN4CC[C@@H](O)C4)ccc3F)cc2NC(=O)c2c[nH]c(=O)cc2C(F)(F)F)CC1 [Example 69, (R)—N-(2′-fluoro-5′-((3-hydroxypyrrolidin-1-yl)methyl)-4-(4-methylpiperazin-1-yl)-[1,1′-biphenyl]-3-yl)-6-oxo-4-(trifluoromethyl)-1,6-dihydropyridine-3-carboxamide]
MLL1-WRAD2 complex
  pIC50: 5.54
MV4-11 cells
  pIC50: < 5.00
WDR5 protein; [2]
  pKd: 8.27
WDR5 protein; [3]
  pKd: 8.27
WDR5 protein
  residence time: 2.36 min

## CN1CCN(c2ccc(-c3cc(C(=O)NC4CCCCC4)ccc3F)cc2NC(=O)c2c[nH]c(=O)cc2C(F)(F)F)CC1 [Example 32, N-(5′-(cyclohexylcarbamoyl)-2′-fluoro-4-(4-methylpiperazin-1-yl)-[1,1′-biphenyl]-3-yl)-6-oxo-4-(trifluoromethyl)-1,6-dihydropyridine-3-carboxamide]
MLL1-WRAD2 complex
  pIC50: 6.48
MV4-11 cells
  pIC50: 6.17
WDR5 protein; [2]
  pKd: 8.22
WDR5 protein; [3]
  pKd: 8.22
WDR5 protein
  residence time: 9.48 min

## CN1CCN(c2ccc(-c3cc(CN4CCC(F)CC4)ccc3F)cc2NC(=O)c2c[nH]c(=O)cc2C(F)(F)F)CC1 [Example 73, N-(2′-fluoro-5′-((4-fluoropiperidin-1-yl)methyl)-4-(4-methylpiperazin-1-yl)-[1,1′-biphenyl]-3-yl)-6-oxo-4-(trifluoromethyl)-1,6-dihydropyridine-3-carboxamide]
MLL1-WRAD2 complex
  pIC50: 6.23
MV4-11 cells
  pIC50: 6.30
WDR5 protein; [2]
  pKd: 8.38
WDR5 protein; [3]
  pKd: 8.38
WDR5 protein
  residence time: 5.44 min

## C[C@@H]1CN(c2ccc(-c3cc(C(=O)Nc4ccccc4)ccc3F)cc2NC(=O)c2c[nH]c(=O)cc2C(F)(F)F)C[C@H](C)N1C [Example 80, N-(2′-fluoro-5′-(phenylcarbamoyl)-4-((3S,5R)-3,4,5-trimethylpiperazin-1-yl)-[1,1′-biphenyl]-3-yl)-6-oxo-4-(trifluoromethyl)-1,6-dihydropyridine-3-carboxamide]
MLL1-WRAD2 complex
  pIC50: 5.40
MV4-11 cells
  pIC50: 5.66
WDR5 protein; [2]
  pKd: 8.40
WDR5 protein; [3]
  pKd: 7.85
WDR5 protein
  residence time: 2.18 min

## C[C@@H]1CN(c2ccc(-c3cc(CNC4CCCCC4)ccc3F)cc2NC(=O)c2c[nH]c(=O)cc2C(F)(F)F)C[C@H](C)N1C [Example 45, N-(5′-((cyclohexylamino)methyl)-2′-fluoro-4-((3S,5R)-3,4,5-trimethylpiperazin-1-yl)-[1,1′-biphenyl]-3-yl)-6-oxo-4-(trifluoromethyl)-1,6-dihydropyridine-3-carboxamide]
MLL1-WRAD2 complex
  pIC50: 6.29
MV4-11 cells
  pIC50: 7.13
WDR5 protein; [2]
  pKd: 8.70
WDR5 protein; [3]
  pKd: 8.70
WDR5 protein
  residence time: 31.9 min
